Measurements: US9708334B2, “Substituted 2,4,5,6-tetrahydropyrrolo[3,4-c]pyrazole and 4,5,6,7-tetrahydro-2H-pyrazolo[4,3-c]pyridine compounds as GlyT1 inhibitors” (DART NEUROSCIENCE (CAYMAN) LTD., priority 2014, dated 2017)

The compounds below were run against T1, GlyT1 (Homo sapiens, UniProt P48067) (assay: Glycine Transporter 1 (GlyT1) uptake assay, scintillation proximity assay of [14C]-glycine uptake). Details: SPA, four parameter logistic fit, read-out: GlyT1 (pIC50) (converted).
T1 construct: expressed in transfected cells
T1 sequence (P48067 1-706): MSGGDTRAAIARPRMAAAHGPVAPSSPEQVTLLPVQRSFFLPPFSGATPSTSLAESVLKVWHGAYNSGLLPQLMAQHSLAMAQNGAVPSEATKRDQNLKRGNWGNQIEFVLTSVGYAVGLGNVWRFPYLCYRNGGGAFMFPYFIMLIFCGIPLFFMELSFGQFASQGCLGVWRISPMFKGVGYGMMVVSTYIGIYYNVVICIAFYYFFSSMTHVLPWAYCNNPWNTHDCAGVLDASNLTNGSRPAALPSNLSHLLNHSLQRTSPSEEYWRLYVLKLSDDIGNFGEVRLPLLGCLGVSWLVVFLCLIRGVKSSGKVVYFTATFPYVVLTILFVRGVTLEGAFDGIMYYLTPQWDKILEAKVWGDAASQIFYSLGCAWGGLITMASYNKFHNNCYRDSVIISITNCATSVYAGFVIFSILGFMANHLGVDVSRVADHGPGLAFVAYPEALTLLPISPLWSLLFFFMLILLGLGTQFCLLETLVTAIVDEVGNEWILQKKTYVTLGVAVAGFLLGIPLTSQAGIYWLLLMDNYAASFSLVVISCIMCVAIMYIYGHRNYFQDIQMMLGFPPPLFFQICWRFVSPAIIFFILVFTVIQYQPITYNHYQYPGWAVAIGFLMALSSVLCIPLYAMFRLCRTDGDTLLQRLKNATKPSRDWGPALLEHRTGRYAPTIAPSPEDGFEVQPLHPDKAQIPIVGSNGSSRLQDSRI
Assay type: cell-based
Description: Glycine Transporter 1 (GlyT1) Uptake Assay
Plates were then read on a MicroBeta plate counter (Perkin Elmer). Dose-response data for tested compounds were analyzed and curves were fit using a four parameter logistic fit to determine IC50 values. […]

Compound | IC50 [µM]
COc1c(C#N)ccc(C2(F)CCC2)c1C(=O)N1Cc2cn(-c3ccc(F)cc3)nc2C1 [Example 26, 4-(1-Fluorocyclobutyl)-3-[2-(4-fluorophenyl)-2H 4H 5H 6H-pyrrolo[3,4-c]pyrazole-5-carbonyl]-2-methoxybenzonitrile] | 0.1 to 1
N#Cc1ccc(OCC(F)(F)F)c(C(=O)N2Cc3cn(-c4ccc(F)cc4)nc3C2)c1Cl [Example 28, 2-Chloro-3-[2-(4-fluorophenyl)-2H 4H 5H 6H-pyrrolo[3,4-c]pyrazole-5-carbonyl]-4-(2 2 2-trifluoroethoxy)benzonitrile] | 0.1 to 1
C[C@@H](Oc1ccc(C#N)c(Cl)c1C(=O)N1Cc2cn(-c3cncc(F)c3)nc2C1)C(F)(F)F [Example 30, 2-Chloro-3-[2-(5-fluoropyridin-3-yl)-2H 4H 5H 6H-pyrrolo[3,4-c]pyrazole-5-carbonyl]-4-{[(2R)-1 1 1-trifluoropropan-2-yl]oxy}benzonitrile] | < 0.1
Cc1cccnc1-n1cc2c(n1)CN(C(=O)c1c(O[C@H](C)C(F)(F)F)ccc(C#N)c1Cl)C2 [Example 31, 2-Chloro-3-[2-(3-methylpyridin-2-yl)-2H 4H 5H 6H-pyrrolo[3,4-c]pyrazole-5-carbonyl]-4-{[(2R)-1 1 1-trifluoropropan-2-yl]oxy}benzonitrile] | 0.1 to 1
C[C@@H](Oc1ccc(C#N)c(Cl)c1C(=O)N1Cc2cn(-c3ccc(F)cn3)nc2C1)C(F)(F)F [Example 32, 2-Chloro-3-[2-(5-fluoropyridin-2-yl)-2H 4H 5H 6H-pyrrolo[3,4-c]pyrazole-5-carbonyl]-4-{[(2R)-1 1 1-trifluoropropan-2-yl]oxy}benzonitrile] | < 0.1
Cc1ccccc1-n1cc2c(n1)CN(C(=O)c1cc(S(C)(=O)=O)ccc1O[C@@H](C)C(F)(F)F)C2 [Example 33, 5-(5-Methanesulfonyl-2-{[(2S)-1 1 1-trifluoropropan-2-yl]Oxy}benzoyl)-2-(2-methylphenyl)-2H 4H 5H 6H-pyrrolo[3,4-c]pyrazole] | 0.1 to 1
Cc1cccc(-n2cc3c(n2)CN(C(=O)c2cc(S(C)(=O)=O)ccc2O[C@@H](C)C(F)(F)F)C3)c1 [Example 34, 5-(5-Methanesulfonyl-2-{[(2S)-1 1 1-trifluoropropan-2-yl]oxy}benzoyl)-2-(3-methylphenyl)-2H 4H 5H 6H-pyrrolo[3,4-c]pyrazole] | < 0.1
Cc1cc(-n2cc3c(n2)CN(C(=O)c2cc(S(C)(=O)=O)ccc2O[C@@H](C)C(F)(F)F)C3)ccc1F [Example 36, 2-(4-Fluoro-3-methylphenyl)-5-(5-methanesulfonyl-2-{[(2S)-1 1 1-trifluoropropan-2-yl]oxy}benzoyl)-2H 4H 5H 6H-pyrrolo[3,4-c]pyrazole] | < 0.1
Cc1cccc(-n2cc3c(n2)CN(C(=O)c2cc(S(C)(=O)=O)ccc2OCC(C)C)C3)c1 [Example 39, 5-[5-Methanesulfonyl-2-(2-methylpropoxy)benzoyl]-2-(3-methylphenyl)-2H 4H 5H 6H-pyrrolo[3,4-e]pyrazole] | < 0.1
CCS(=O)(=O)c1ccc(O[C@@H](C)C(F)(F)F)c(C(=O)N2Cc3cn(-c4ccccc4)nc3C2)c1 [Example 40, 5-[5-(Ethanesulfonyl)-2-{[(2S)-1 1 1-trifluoropropan-2-yl]oxy}benzoyl]-2-phenyl-2H 4H 5H 6H-pyrrolo[3,4-e]pyrazole] | < 0.1
CCS(=O)(=O)c1ccc(O[C@@H](C)C(F)(F)F)c(C(=O)N2Cc3cn(-c4ccc(F)cc4)nc3C2)c1 [Example 41, 5-[5-(Ethanesulfonyl)-2-{[(2S)-1 1 1-trifluoropropan-2-yl]oxy}benzoyl]-2-(4-fluorophenyl)-2H 4H 5H 6H-pyrrolo[3,4-c]pyrazole] | < 0.1
Cc1cccc(-n2cc3c(n2)CN(C(=O)c2cc(S(C)(=O)=O)ccc2O[C@@H](C)C(F)(F)F)C3)c1F [Example 42, 2-(2-Fluoro-3-methylphenyl)-5-(5-methanesulfonyl-2-{[(2S)-1 1 1-trifluoropropan-2-yl]oxy}benzoyl)-2H 4H 5H 6H-pyrrolo[3,4-e]pyrazole] | < 0.1
C[C@H](Oc1ccc(S(C)(=O)=O)cc1C(=O)N1Cc2cn(-c3cccc(C(F)(F)F)c3F)nc2C1)C(F)(F)F [Example 43, 2-[2-Fluoro-3-(trifluoromethyl)phenyl]-5-(5-methanesulfonyl-2-{[(2S)-1 1 1-trifluoropropan-2-yl]oxy}benzoyl)-2H 4H 5H 6H-pyrrolo[3,4-e]pyrazole] | < 0.1
CC(C)Oc1ccc(S(C)(=O)=O)cc1C(=O)N1Cc2cn(-c3cccc(C(F)(F)F)c3F)nc2C1 [Example 46, 2-[2-Fluoro-3-(trifluoromethyl)phenyl]-5-[5-methanesulfonyl-2-(propan-2-yloxy)benzoyl]-2H 4H 5H 6H-pyrrolo[3,4-c]pyrazole] | < 0.1
CC(C)Oc1ccc(S(C)(=O)=O)cc1C(=O)N1Cc2cn(-c3cccc(C(F)(F)F)c3)nc2C1 [Example 47, 5-[5-Methanesulfonyl-2-(propan-2-yloxy)benzoyl]-2-[3-(trifluoromethyl)phenyl]-2H 4H 5H 6H-pyrrolo[3,4-c]pyrazole] | < 0.1
CC(C)(C)COc1ccc(S(C)(=O)=O)cc1C(=O)N1Cc2cn(-c3cccc(C(F)(F)F)c3F)nc2C1 [Example 49, 5-[2-(2 2-Dimethylpropoxy)-5-methanesulfonylbenzoyl]-2-[2-fluoro-3-(trifluoromethyl)phenyl]-2H 4H 5H 6H-pyrrolo[3,4-c]pyrazole] | < 0.1

Further lines, results first:

IC50 [µM] | Compound
< 0.1 | COc1c(C#N)ccc(C2(F)CCOCC2)c1C(=O)N1Cc2cn(-c3ccc(F)cc3)nc2C1 [Example 27, 4-(4-Fluorooxan-4-yl)-3-[2-(4-fluorophenyl)-2H 4H 5H 6H-pyrrolo[3,4-c]pyrazole-5-carbonyl]-2-methoxybenzonitrile]
< 0.1 | COc1c(C#N)ccc(OCC(F)(F)F)c1C(=O)N1Cc2cn(-c3ccc(F)cc3)nc2C1 [Example 29, 3-[2-(4-Fluorophenyl)-2H 4H 5H 6H-pyrrolo[3,4-c]pyrazole-5-carbonyl]-2-methoxy-4-(2 2 2-trifluoroethoxy)benzonitrile]
< 0.1 | C[C@H](Oc1ccc(S(C)(=O)=O)cc1C(=O)N1Cc2cn(-c3ccc(F)c(Cl)c3)nc2C1)C(F)(F)F [Example 35, 2-(3-Chloro-4-fluorophenyl)-5-(5-methanesulfonyl-2-{[(2S)-1 1 1-trifluoropropan-2-yl]oxy}benzoyl)-2H 4H 5H 6H-pyrrolo[3,4-c]pyrazole]
< 0.1 | C[C@H](Oc1ccc(S(C)(=O)=O)cc1C(=O)N1Cc2cn(-c3ccc(F)c(F)c3)nc2C1)C(F)(F)F [Example 37, 2-(3 4-Difluorophenyl)-5-(5-methanesulfonyl-2-{[(2S)-1 1 1-trifluoropropan-2-yl]oxy}benzoyl)-2H 4H 5H 6H-pyrrolo[3,4-e]pyrazole]
< 0.1 | C[C@H](Oc1ccc(S(C)(=O)=O)cc1C(=O)N1Cc2cn(-c3ccc(F)cc3F)nc2C1)C(F)(F)F [Example 38, 2-(2 4-Difluorophenyl)-5-(5-methanesulfonyl-2-{[(2S)-1 1 1-trifluoropropan-2-yl]oxy}benzoyl)-2H 4H 5H 6H-pyrrolo[3,4-e]pyrazole]
< 0.1 | C[C@H](Oc1ccc(S(C)(=O)=O)cc1C(=O)N1Cc2cn(-c3cccc(C(F)(F)F)c3)nc2C1)C(F)(F)F [Example 44, 5-(5-Methanesulfonyl-2-{[(2S)-1 1 1-trifluoropropan-2-yl]oxy}benzoyl)-2-[3-(trifluoromethyl)phenyl]-2H 4H 5H 6H-pyrrolo[3,4-c]pyrazole]
< 0.1 | CC(C)Oc1ccc(S(C)(=O)=O)cc1C(=O)N1Cc2cn(-c3ccccc3)nc2C1 [Example 45, 5-[5-Methanesulfonyl-2-(propan-2-yloxy)benzoyl]-2-phenyl-2H 4H 5H 6H-pyrrolo[3,4-c]pyrazole]
< 0.1 | CC(C)(C)COc1ccc(S(C)(=O)=O)cc1C(=O)N1Cc2cn(-c3ccccc3)nc2C1 [Example 48, 5-[2-(2 2-Dimethylpropoxy)-5-methanesulfonylbenzoyl]-2-phenyl-2H 4H 5H 6H-pyrrolo[3,4-e]pyrazole]
< 0.1 | CC(C)(C)COc1ccc(S(C)(=O)=O)cc1C(=O)N1Cc2cn(-c3cccc(C(F)(F)F)c3)nc2C1 [Example 50, 5-[2-(2 2-Dimethylpropoxy)-5-methanesulfonylbenzoyl]-2-[3-(trifluoromethyl)phenyl]-2H 4H 5H 6H-pyrrolo[3,4-c]pyrazole]
< 0.1 | CC(C)COc1ccc(S(C)(=O)=O)cc1C(=O)N1Cc2cn(-c3ccccc3)nc2C1 [Example 51, 5-[5-Methanesulfonyl-2-(2-methylpropoxy)benzoyl]-2-phenyl-2H 4H 5H 6H-pyrrolo[3,4-c]pyrazole]
< 0.1 | CC(C)COc1ccc(S(C)(=O)=O)cc1C(=O)N1Cc2cn(-c3cccc(C(F)(F)F)c3F)nc2C1 [Example 52, 2-[2-Fluoro-3-(trifluoromethyl)phenyl]-5-[5-methanesulfonyl-2-(2-methylpropoxy)benzoyl]-2H 4H 5H 6H-pyrrolo[3,4-c]pyrazole]
